One data set deals with ME49 strain T. gondii. The data set can be described thus: Chronic toxoplasmosis model, ME49-infected C57BL/6 mice.
A short description of data set [1]: Assay for evaluating mammalian cytotoxicity (MTT). The format is cell-based. Particulars: human, human foreskin fibroblast (HFF) cells, ± SD of three independent experiments, read-out: CC50 (Half Cytotoxic Concentration).
For a further data set, the system named is T. gondii tachyzoites. The data set can be described thus: microbe, parasite or virus in culture. The format is cell-based, Toxoplasma gondii. Particulars: for EC50: Toxoplasma gondii, T. gondii RH-2F1 tachyzoites in HFF, 72 h, ± SD of three independent experiments, read-out: EC50 (Half Effective Concentration); for SI (Selectivity index): CC50 (HFF)/EC50 (T. gondii).

The subject of data set [2] is RH strain T. gondii tachyzoites. The format is in vivo. As to the method:
To evaluate the effectiveness of MQ-1 in treating acute T. gondii infection in vivo, a murine model was employed, utilizing Swiss mice in accordance with established protocols. […] Treatment involved the administration of compounds dissolved in a 4% DMSO solution in water, and was conducted one day post-infection. […] . As for the control group, they were administered 100 µL of the vehicle utilized for MQ-1 dilution, consisting of a 4% DMSO solution in water. Continuous monitoring of the mice included daily assessments for signs of toxoplasmosis. These signs encompassed impaired mobility, feeding difficulties, weight loss, self-mutilation, and severe ascites. […] The implementation of humane endpoints aimed to mitigate any potential pain or suffering in the animals, leading to their euthanasia when necessary. At the end of the experimental period, euthanasia was performed on all remaining mice, and the peritoneal parasite load was estimated using a Neubauer chamber.

Setting [3] is: vs pyrimethamine 12.5 mg/kg/day.

The results in this text go back to publication PMC10891983, “First Description of Marinoquinoline Derivatives’ Activity against Toxoplasma gondii” (Pharmaceutics, 2024).

“Also recorded” adds a separate entry of the source.

Description for ME49 strain T. gondii: Male Swiss mice (Mus musculus) (8 weeks old) for the acute toxoplasmosis experiments and female C57BL/6 mice (4 weeks old) for the chronic toxoplasmosis experiments were sourced from the animal breeding facility at the Universidade Federal de Alfenas, Brazil. Strict adherence to the principles of good animal practice, as outlined in the Brazilian Guidelines for Care and Utilization of Animals by the Conselho Nacional de Controle e Experimentação Animal (CONCEA), was observed during the handling of all animals. The study protocol received approval from the Ethics Committee for Animal Experimentation at the Universidade Federal de Alfenas under Protocols 033/2021 and 0006/2023. All necessary precautions were taken to minimize any potential suffering experienced by the animals.
The mice were infected with 10 cysts of the ME49 strain of T. gondii via intraperitoneal inoculation, following the protocol by [16]. After a 40-day infection period, random assignment was used to divide the mice into distinct experimental groups, each consisting of four mice. These experimental groups were subjected to different treatments: MQ-1, administered either at a dosage of 25 mg/kg/day or 12.5 mg/kg/day, prepared with a 4% DMSO solution in water. […] The administration was carried out via oral gavage, with a final volume of 100 µL per dose. For the control group, 100 µL of the vehicle used to dilute MQ-1 (4% DMSO in water) was administered. […] On the 51st day post-infection, euthanasia was performed for all animals, followed by brain tissue collection for RNA extraction and quantification, as detailed in [18]. DNA extraction and purification were carried out using the PureLink Genomic DNA Minikit (Invitrogen. Carlsbad, CA, USA) following the manufacturer’s instructions. […] After extraction, RNA samples were immediately processed for cDNA synthesis and underwent quantitative real-time (qPCR) analysis. […]
Data on parasite burden in acute and chronic infection in treated and untreated groups were analyzed for statistical significance using One-Way ANOVA, followed by the Tukey post-test. […]

`COc1ccc2c(c1)nc(-c1c[nH]c3ccccc13)c1[nH]ccc12` [MQ-1]: the “cerebral parasitic load vs vehicle” value with ME49 strain T. gondii (C57BL/6 mice, ME49 strain, 25 mg/kg/day oral for 10 consecutive days from day 41 post-infection, qPCR, p < 0.01, 25 mg/kg/day) is listed as “significantly reduced; also recorded: significant (p < 0.01) reduction”. In the data set on ME49 strain T. gondii (setting [3]), the “difference between the tested compound and the standard drug, chronic evaluation” value is reported as “no statistically significant differences”. In addition, the CC50 at 72 h in data set [1] came out at 30.5 ± 1.8 µM. Besides, in the data set on T. gondii tachyzoites, the EC50 was 1.46 ± 0.45 µM. In addition, the “signs of toxicity throughout the treatment” value in data set [2] (Swiss mice, 12.5 mg/kg/day oral for 8 days) is recorded as “No signs of toxicity were observed”. Besides, the “difference between the tested compound and the standard drug, acute evaluation” value in data set [2] (setting [3]) is “no statistically significant differences”.

On to `COc1ccc2c(c1)nc(-c1ccc(N3CCNCC3)cc1)c1[nH]ccc12` [MQ-2], for which the CC50 at 72 h in data set [1] was 29.1 ± 0.84 µM. Besides, in the data set with T. gondii tachyzoites, the “SI (Selectivity index)” value is listed as 17.39 and the EC50 was 1.67 ± 0.4 µM.

For the compound `CC(C)(C)OC(=O)Nc1ccc(-c2nc3ccc(Cl)cc3c3cc[nH]c23)cc1` [MQ-3], the CC50 at 72 h in data set [1] turned out to be 5.36 ± 0.91 µM. In addition, in the data set on T. gondii tachyzoites, the “SI (Selectivity index)” value stood at 3.35 and the EC50 came to 1.6 ± 0.54 µM.

Regarding `CC(C)(C)OC(=O)Nc1ccc(-c2nc3ccc(OC(F)(F)F)cc3c3cc[nH]c23)cc1` [MQ-4], in data set [1], the CC50 at 72 h is 4.16 ± 1.05 µM. For the same compound, in the data set with T. gondii tachyzoites, the “SI (Selectivity index)” value was determined as 3.18 and the EC50 turned out to be 1.31 ± 0.31 µM.

`COc1ccc2c(c1)nc(-c1ccc(N3CCC(F)CC3)cc1)c1[nH]ccc12` [MQ-5]: in data set [1], the CC50 at 72 h worked out at 5.05 ± 1.63 µM. In the data set on T. gondii tachyzoites, the “SI (Selectivity index)” value is recorded as 3.52 and the EC50 stood at 1.43 ± 0.37 µM.

`COc1ccc2c(c1)nc(-c1ccc(Br)cn1)c1[nH]ccc12` [MQ-6]: the CC50 at 72 h in data set [1] was found to be 28.6 ± 7.33 µM. Moreover, in the data set on T. gondii tachyzoites, the “SI (Selectivity index)” value is recorded as 7.55 and the EC50 was 3.78 ± 0.67 µM.

For the compound `CCc1nc(N)nc(N)c1-c1ccc(Cl)cc1` [PYR, pyrimethamine, reference compound], the CC50 at 72 h in data set [1] worked out at 68.1 ± 4.26 µM. The EC50 in the data set on T. gondii tachyzoites worked out at 0.29 ± 0.19 µM.
